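Abbreviation: GI50, concentration required for 50% inhibition of growth. TGI is the concentration that stops growth completely.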
Tests used:
Test in all cases: NCI-60 cell line screen, 384-well format
786-0 renal = test system: 786-0 renal
A498 renal = test system: A498 renal
A549 NSCLC = test system: A549 NSCLC
ACHN renal = test system: ACHN renal
BT-549 breast = test system: BT-549 breast
CAKI-1 renal = test system: CAKI-1 renal
CCRF-CEM leukemia = test system: CCRF-CEM leukemia
COLO 205 colon = test system: COLO 205 colon
DU-145 prostate = test system: DU-145 prostate
EKVX NSCLC = test system: EKVX NSCLC
HCC-2998 colon = test system: HCC-2998 colon
HCT-116 colon = test system: HCT-116 colon
HCT-15 colon = test system: HCT-15 colon
HL-60(TB) leukemia = test system: HL-60(TB) leukemia
HOP-62 NSCLC = test system: HOP-62 NSCLC
HOP-92 NSCLC = test system: HOP-92 NSCLC
HS 578T breast = test system: HS 578T breast
HT29 colon = test system: HT29 colon
IGROV1 ovarian = test system: IGROV1 ovarian
K-562 leukemia = test system: K-562 leukemia
KM12 colon = test system: KM12 colon
LOX IMVI melanoma = test system: LOX IMVI melanoma
M14 melanoma = test system: M14 melanoma
MALME-3M melanoma = test system: MALME-3M melanoma
MCF7 breast = test system: MCF7 breast
MDA-MB-231 breast = test system: MDA-MB-231 breast
MDA-MB-435 melanoma = test system: MDA-MB-435 melanoma
MDA-MB-468 breast = test system: MDA-MB-468 breast
MOLT-4 leukemia = test system: MOLT-4 leukemia
NCI-H226 lung = test system: NCI-H226 lung
NCI-H23 lung = test system: NCI-H23 lung
NCI-H322M lung = test system: NCI-H322M lung
NCI-H460 NSCLC = test system: NCI-H460 NSCLC
NCI-H522 lung = test system: NCI-H522 lung
NCI/ADR-RES ovarian = test system: NCI/ADR-RES ovarian
OVCAR-3 ovarian = test system: OVCAR-3 ovarian
OVCAR-4 ovarian = test system: OVCAR-4 ovarian
OVCAR-5 ovarian = test system: OVCAR-5 ovarian
OVCAR-8 ovarian = test system: OVCAR-8 ovarian
PC-3 prostate = test system: PC-3 prostate
RPMI-8226 leukemia = test system: RPMI-8226 leukemia
RXF 393 renal = test system: RXF 393 renal
SF-268 CNS = test system: SF-268 CNS
SF-295 CNS = test system: SF-295 CNS
SF-539 CNS = test system: SF-539 CNS
SK-MEL-2 melanoma = test system: SK-MEL-2 melanoma
SK-MEL-28 melanoma = test system: SK-MEL-28 melanoma
SK-MEL-5 melanoma = test system: SK-MEL-5 melanoma
SK-OV-3 ovarian = test system: SK-OV-3 ovarian
SN12C renal = test system: SN12C renal
SNB-19 CNS = test system: SNB-19 CNS
SW-620 colon = test system: SW-620 colon
T-47D breast = test system: T-47D breast
TK-10 renal = test system: TK-10 renal
U251 glioblastoma = test system: U251 glioblastoma
UACC-257 melanoma = test system: UACC-257 melanoma
UACC-62 melanoma = test system: UACC-62 melanoma
UO-31 renal = test system: UO-31 renal

Cc1noc(C)c1-c1cnc2c(-c3ccc(C(=O)O)cc3)cn([C@@H](C)c3ccccn3)c2c1
GI50 ([…]-0 renal): 0.147 µM | TGI (786-0 renal): 9.25 µM | GI50 (A498 renal): 0.283 µM | TGI (A498 renal): 2.83 µM | GI50 (A549 NSCLC): 0.755 µM | TGI (A549 NSCLC): > 100 µM | GI50 (ACHN renal): 0.627 µM | TGI (ACHN renal): 14.9 µM | GI50 (BT-549 breast): 0.0601 µM | TGI (BT-549 breast): 0.761 µM | TGI (CAKI-1 renal): 3.46 µM | GI50 (CCRF-CEM leukemia): 0.0758 µM | TGI (CCRF-CEM leukemia): 2.79 µM | GI50 (COLO 205 colon): 0.418 µM | TGI (COLO 205 colon): 6.01 µM | GI50 (DU-145 prostate): 2.4 µM | TGI (DU-145 prostate): > 100 µM | GI50 (EKVX NSCLC): 2.95 µM | TGI (EKVX NSCLC): > 100 µM | GI50 (HCC-2998 colon): 0.117 µM | TGI (HCC-2998 colon): 1.05 µM | GI50 (HCT-116 colon): 0.552 µM | TGI (HCT-116 colon): 23.1 µM | GI50 (HCT-15 colon): 0.205 µM | TGI (HCT-15 colon): 10.8 µM | GI50 (HL-60(TB) leukemia): 0.0161 µM | TGI (HL-60(TB) leukemia): 0.142 µM | GI50 (HOP-62 NSCLC): 0.228 µM | TGI (HOP-62 NSCLC): 9.58 µM | GI50 (HOP-92 NSCLC): 0.188 µM | TGI (HOP-92 NSCLC): 39.4 µM | GI50 (HS 578T breast): 0.0514 µM | TGI (HS 578T breast): 1.28 µM | GI50 (HT29 colon): 0.301 µM | TGI (HT29 colon): > 100 µM | GI50 (IGROV1 ovarian): 0.0787 µM | TGI (IGROV1 ovarian): 1.98 µM | GI50 (K-562 leukemia): 0.173 µM | TGI (K-562 leukemia): > 100 µM | GI50 (KM12 colon): 0.579 µM | TGI (KM12 colon): 19.3 µM | GI50 (LOX IMVI melanoma): 0.144 µM | TGI (LOX IMVI melanoma): 0.381 µM | GI50 (M14 melanoma): 0.209 µM | TGI (M14 melanoma): 51.9 µM | TGI (MALME-3M melanoma): 1.73 µM | GI50 (MCF7 breast): 0.0159 µM | TGI (MCF7 breast): 3.13 µM | GI50 (MDA-MB-231 breast): 0.123 µM | TGI (MDA-MB-231 breast): 23.8 µM | GI50 (MDA-MB-435 melanoma): 0.805 µM | TGI (MDA-MB-435 melanoma): > 100 µM | GI50 (MDA-MB-468 breast): 0.0721 µM | TGI (MDA-MB-468 breast): 0.919 µM | GI50 (MOLT-4 leukemia): 0.103 µM | TGI (MOLT-4 leukemia): 1.47 µM | GI50 (NCI-H226 lung): 0.406 µM | TGI (NCI-H226 lung): 7.35 µM | GI50 (NCI-H23 lung): 0.366 µM | TGI (NCI-H23 lung): 6.37 µM | GI50 (NCI-H322M lung): 0.619 µM | TGI (NCI-H322M lung): 58.4 µM | GI50 (NCI-H460 NSCLC): 3.17 µM | TGI (NCI-H460 NSCLC): > 100 µM | GI50 (NCI-H522 lung): 0.015 µM | TGI (NCI-H522 lung): 0.391 µM | GI50 (NCI/ADR-RES ovarian): 1.18 µM | TGI (NCI/ADR-RES ovarian): 17.2 µM | GI50 (OVCAR-3 ovarian): 0.116 µM | TGI (OVCAR-3 ovarian): 10.3 µM | GI50 (OVCAR-4 ovarian): 0.167 µM | TGI (OVCAR-4 ovarian): 0.739 µM | GI50 (OVCAR-5 ovarian): 0.525 µM | TGI (OVCAR-5 ovarian): 27.4 µM | GI50 (OVCAR-8 ovarian): 0.234 µM | TGI (OVCAR-8 ovarian): 2.39 µM | GI50 (PC-3 prostate): 0.467 µM | TGI (PC-3 prostate): > 100 µM | GI50 (RPMI-8226 leukemia): 0.012 µM | TGI (RPMI-8226 leukemia): 0.152 µM | GI50 (RXF 393 renal): 0.254 µM | TGI (RXF 393 renal): 1.29 µM | GI50 (SF-268 CNS): 1.47 µM | TGI (SF-268 CNS): 27 µM | GI50 (SF-295 CNS): 1.46 µM | TGI (SF-295 CNS): 28.9 µM | GI50 (SF-539 CNS): 0.292 µM | TGI (SF-539 CNS): 1.68 µM | GI50 (SK-MEL-2 melanoma): 0.0464 µM | TGI (SK-MEL-2 melanoma): 14 µM | GI50 (SK-MEL-28 melanoma): 0.699 µM | TGI (SK-MEL-28 melanoma): > 100 µM | GI50 (SK-MEL-5 melanoma): 0.0616 µM | TGI (SK-MEL-5 melanoma): 3.08 µM | GI50 (SK-OV-3 ovarian): 0.445 µM | TGI (SK-OV-3 ovarian): 9.82 µM | GI50 (SN12C renal): 1.04 µM | TGI (SN12C renal): > 100 µM | GI50 (SNB-19 CNS): 0.554 µM | TGI (SNB-19 CNS): > 100 µM | GI50 (SW-620 colon): 4.75 µM | TGI (SW-620 colon): 73.9 µM | GI50 (T-47D breast): 0.201 µM | TGI (T-47D breast): 3.31 µM | GI50 (TK-10 renal): 0.0343 µM | TGI (TK-10 renal): 0.989 µM | GI50 (U251 glioblastoma): 1.77 µM | TGI (U251 glioblastoma): 30.1 µM | GI50 (UACC-257 melanoma): 0.219 µM | TGI (UACC-257 melanoma): 9.84 µM | GI50 (UACC-62 melanoma): 0.0378 µM | TGI (UACC-62 melanoma): 1.27 µM | GI50 (UO-31 renal): 0.323 µM | TGI (UO-31 renal): 13.4 µM
